In patent US20220241333A1, “MODULATION OF T CELL CYTOTOXICITY AND RELATED THERAPY” (Cancer Research Technology Limited, priority 2019, published 2022):

Tests used:
Bcl6 = Bcl6 (Homo sapiens, UniProt P41182); details: compared with BI-3802; cited from earlier work
[1] = system: human CD4+ effector T cells; assay: GZMB expression in human CD4+ effector T cells (PBMCs) treated with Bcl6 targeting drugs (flow cytometry); assay type: cell-based; details: 100 nM, 72 h, low dose αCD3 0.5 ug/ml
Method: (§1) Healthy donor human PBMCs were labelled with CellTrace Violet (ThermoFisher) according to manufacturer's protocol and cultured in RPMI media supplemented with 10% fetal bovine serum, 100 U/mL penicillin, 100 ug/ml streptomycin and 2 mM L-glutamine for 72 h. Cells were either left unstimulated or stimulated with αCD3 (clone OKT3) at a final concentration of 0.5 ug/ml. Cells were additionally treated with Bcl6 targeting drugs, or with a control compound (BI-5273), at a final concentration of 100 nM. Cells were stained for flow cytometry using a fixable viability dye (eBiosciences) and with directly conjugated antibodies against human CD3, CD4, CD8, FoxP3, CD25, GzmB, and Bcl6 using the FoxP3 Transcription factor staining Buffer set (ThermoFisher) according to the manufacturer's instructions.

human CD8+ T cells = assay: GZMB and BCL6 expression in human CD8+ T cells (PBMCs) treated with Bcl6 targeting drugs (flow cytometry); assay type: cell-based; details: 100 nM, 72 h, low dose αCD3 0.5 ug/ml; compared to control compound BI-5273
Method: as §1

human naive CD4+ T cells = assay: GzmB expression in aCD3/aCD28-stimulated human naive CD4+ T cells; assay type: cell-based; details: blockade of IL-2R signalling with anti-human CD25
Method: FACS-purified human CD4^+ T cells were cultured in RPMI complete medium with irradiated autologous feeders cells in 1:1 ratio for 96 h, stimulated with aCD3 (OKT3) and aCD28 (9.3; BioXcell). To some wells anti-CD25 antibody (Basiliximab; Novartis) was added 48 hours post aCD3/CD28 stimulation.

CD4+ effector T cells = assay: GZMB expression in mouse CD4+ effector T cells treated with Bcl6 degrader (flow cytometry); assay type: cell-based; details: 10 nM, 72 h, low dose αCD3+αCD28 0.1 ug/ml
Method: Spleens and lymph nodes were taken from C57BL/6J mice, and processed through a 70 μm mesh using PBS, followed by red blood cell lysis using Red Blood cell lysis buffer (Sigma) according to the manufacturer's protocol. Lymphocytes were labelled with CellTrace Violet (ThermoFisher) according to manufacturer's protocol and cultured in RPMI media supplemented with 10% fetal bovine serum, 100 U/mL penicillin, 100 ug/ml streptomycin and 2 mM L-glutamine for 72 h. Cells were either left unstimulated or stimulated with αCD3 (clone 2C11, BioXcell) and αCD28 (clone 37.51, BioXcell) at 0.1 ug/ml. Cells were additionally treated with a Bcl6 degrader (BI-3802) or with a control compound (BI-5273), at a final concentration of 10 nM. […] Cells were stained for flow cytometry using a fixable viability dye (eBiosciences) and with directly conjugated antibodies against CD3, CD4, CD8, FoxP3, CD25, GzmB, PD-1 and Bcl6 using the FoxP3 Transcription factor staining Buffer set (ThermoFisher) according to the manufacturer's instructions.

[2] = system: CD4+ Trp1 and OT-II T cells; assay: GzmB upregulation in CD4+ Trp1 and OT-II TCR Tg T cells stimulated in vitro with antigen and cytokines; assay type: cell-based, mouse; details: low antigen concentration (0.01 μM OVA peptide), comparison of CGAMMA chain cytokines
Method: Purified CD4+ T cells (CD4 T cells beads, Miltenyi or CD4 Dyna Beads, Invitrogen) were cultured in RPMI complete medium (as above) together with DC and irradiated feeder cells (40 Gy) in 2:1:1 ratio for 72 or 96 h. Polyclonal CD4+ T cells were stimulated with anti-CD3 (2C11) and anti-CD28 (37.51) (BioXcell); OT-II cells with OVA peptide (Pepscan) and Trp-1 cells with Trp-1 peptide (Pepscan) at concentration indicated in figure legend. Mouse CD4 T cells were cultured with aCD25 (PC61) and aIL-2 (JES6-1A12, BioXcell).
We therefore evaluated the potential contribution of CGAMMA receptor cytokines to the upregulation of GzmB in tumour-reactive CD4^+ T cells.

[3] = compared to control compound BI-5273
[4] = relative to control compound BI-5273

C[C@@H]1C[C@H](C)CN(c2ncc(Cl)c(Nc3ccc4c(c3)cc(OC(C)(C)C(=O)O)c(=O)n4C)n2)C1 [BI-5273]
Bcl6 inhibitor activity (Bcl6): significantly reduced Bcl6 inhibitor activity

C[C@@H]1CN(c2ncc(Cl)c(Nc3ccc4c(c3)n(CCC(C)(C)O)c(=O)n4C)n2)C[C@H](C)C1(F)F [CCT369260, 5-((5-chloro-2-((3R,5S)-4,4-difluoro-3,5-dimethylpiperidin-1-yl)pyrimidin-4-yl)amino)-3-(3-hydroxy-3-methylbutyl)-1-methyl-1,3-dihydro-2H-benzo[d]imidazol-2-one]
Mean fluorescence intensity (MFI) of GZMB in human CD4+ effector T cells [1, 3]: increased GZMB expression | Percentage of human CD4+ effector T cells that express GZMB [1, 4]: significantly greater percentage | Percentage of human CD8+ T cells that express BCL6 (human CD8+ T cells): significantly lower percentage | Percentage of human CD8+ T cells that express GZMB (human CD8+ T cells): A decrease, although not statistically significant

Basiliximab
GzmB expression (human naive CD4+ T cells): significantly reduced GzmB expression to levels below those of the untreated control sample

CNC(=O)COc1cc2cc(Nc3nc(N4C[C@H](C)C[C@H](C)C4)ncc3Cl)ccc2n(C)c1=O [BI-3802]
Mean fluorescence intensity of GZMB in CD4+ effector T cells (CD4+ effector T cells; [3]): increased GZMB expression | Percentage of CD4+ effector T cells that express GZMB (CD4+ effector T cells; [4]): significantly greater percentage

B1: IL-7: cytokine (Peprotech) added to T cell cultures (protein, UniProt P13232 26-177, looked up)
Interleukin-7: DCDIEGKDGKQYESVLMVSIDQLLDSMKEIGSNCLNNEFNFFKRHICDANKEGMFLFRAARKLRQFLKMNSTGDFDLHLLKVSEGTTILLNCTGQVKGRKPAALGEAQPTKSLEENKSLKEQKKLNDLCFLKRLLQEIKTCWNKILMGTKEH
Induction of GzmB [2]: at a much lower level
